According to patent US20260017958A1, “METHOD FOR DETERMINING REGION OF CELL THAT HAS UNDERGONE PROGRAMMED CELL DEATH, DEVICE COMPRISING DETERMINATION UNIT, AND INFORMATION PROCESSING PROGRAM INCLUDING DETERMINATION STEP” (priority 2022, published 2026):

Experiments:
[1] = system: A549 cell clusters
Method: A549 cells, a human lung cancer-derived cell line, were seeded on an EZSPHERE 6-well plate (manufactured by AGC Techno Glass Co., Ltd.) at a density of 1.50×10^5 cells per well, and the cells were cultured in MEM medium containing 10% fetal bovine serum and MEM Non-Essential Amino Acids Solution (100x) (manufactured by Gibco, Inc.) at a final concentration of 1× under the conditions of 5% CO2, 37° C., and 100% humidity for 3 days, to form cell clusters. A DMSO solution of staurosporine (manufactured by FUJIFILM Wako Pure Chemical Corporation) was added thereto so as to obtain a final concentration of 0, 10, 20, 50, 100, 200, 300, 500, 700, 1000, 2000, or 5000 nM, and the cells were further cultured for 1 day. Under the conditions in which the final concentration of STS was 0 nM, a solution of DMSO (manufactured by Sigma-Aldrich Corporation), which was used as a solvent for STS, at a final concentration of 0.5% was added.
For the obtained cell clusters, the refractive index distribution data was acquired using an observation apparatus 1A and the ODT shown in the refractive index distribution measurement method C. An objective lens at a magnification of 60 times was used.
Subsequently, the threshold value of the amount of spatial variation of the refractive index used in the threshold method was set to 2×10^−4. Subsequently, the refractive index distribution data was subjected to Gaussian noise removal processing using a Gaussian filter, fourth-order differentiation processing, and image convolution processing, and the amount of spatial variation of the refractive index for each voxel included in the refractive index distribution data was calculated. Lastly, the obtained amount of spatial variation of the refractive index was compared with the threshold value 2×10^−4, a region having an amount of spatial variation of the refractive index greater than the threshold value was determined to be a region of cells that had undergone programmed cell death (region of dead cells), and a region having an amount of spatial variation of the refractive index smaller than the threshold value was determined to be a non-divided region (region of live cells).

[2] = system: HepG2 cell clusters; settings: FIG. 47 and 48
Method: A549 cells, a human lung cancer-derived cell line, were seeded on an EZSPHERE 6-well plate (manufactured by AGC Techno Glass Co., Ltd.) at a density of 1.50×10^5 cells per well, and the cells were cultured in MEM medium containing 10% fetal bovine serum and MEM Non-Essential Amino Acids Solution (100x) (manufactured by Gibco, Inc.) at a final concentration of 1× under the conditions of 5% CO2, 37° C., and 100% humidity for 3 days, to form cell clusters. A DMSO solution of staurosporine (manufactured by FUJIFILM Wako Pure Chemical Corporation) was added thereto so as to obtain a final concentration of 0, 10, 20, 50, 100, 200, 300, 500, 700, 1000, 2000, or 5000 nM, and the cells were further cultured for 1 day. […]
Subsequently, the threshold value of the amount of spatial variation of the refractive index used in the threshold method was set to 2×10^−4. Subsequently, the refractive index distribution data was subjected to Gaussian noise removal processing using a Gaussian filter, fourth-order differentiation processing, and image convolution processing, and the amount of spatial variation of the refractive index for each voxel included in the refractive index distribution data was calculated. […]

CN[C@@H]1C[C@H]2O[C@@](C)([C@@H]1OC)n1c3ccccc3c3c4c(c5c6ccccc6n2c5c31)C(=O)NC4 [staurosporine]
equivalent diameter of the cell cluster ([1]; 0-5000 nM, FIG. 41): not dependent on the concentration of staurosporine
volume of the cell cluster ([1]; 0-5000 nM, FIG. 42): not dependent on the concentration of staurosporine
proportion of regions determined to be non-divided regions (live cells) ([1]; 0-5000 nM, FIG. 46): decreased in a staurosporine concentration-dependent manner
nuclear fragmentation (morphological feature of apoptosis) in refractive index tomography data ([1]; 1000 nM, FIG. 43): cells with nuclear fragmentation, which is a morphological feature of apoptosis, were observed on the surface and the inside of the cell cluster
external shape of the cell cluster [2]: conspicuous changes in the external shape did not occur
